# Reference: ChEMBL document CHEMBL4507319 (2021)
# pIC50: −log10 of the molar value.
# Experiments:
# [1] = molecular target: T1, Serine/threonine-protein kinase STK11 (Homo sapiens) (UniProt Q15831); test: LKB1(h) Eurofins kinase panel; conditions: Compound concentration 1.0 uM
# T1 sequence (whole entry): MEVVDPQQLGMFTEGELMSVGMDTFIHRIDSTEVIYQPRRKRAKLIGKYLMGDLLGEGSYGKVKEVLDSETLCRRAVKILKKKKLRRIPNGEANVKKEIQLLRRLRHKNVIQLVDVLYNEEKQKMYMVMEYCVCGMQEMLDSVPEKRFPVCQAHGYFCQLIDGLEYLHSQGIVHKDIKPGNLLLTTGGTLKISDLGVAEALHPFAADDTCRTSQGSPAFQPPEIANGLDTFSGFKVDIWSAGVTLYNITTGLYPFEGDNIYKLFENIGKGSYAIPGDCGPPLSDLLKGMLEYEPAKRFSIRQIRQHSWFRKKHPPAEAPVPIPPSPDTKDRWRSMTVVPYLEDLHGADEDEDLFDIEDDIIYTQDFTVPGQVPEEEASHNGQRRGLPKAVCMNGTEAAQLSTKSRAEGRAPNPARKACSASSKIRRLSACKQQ
# [2] = molecular target: Ribosomal protein S6 kinase alpha-3 (Homo sapiens, UniProt P51812)
# [3] = molecular target: Cyclin-dependent kinase 5/CDK5 activator 1 (Homo sapiens) (UniProt Q00535+Q15078); test: CDK5/p25(h) Eurofins kinase panel; type: protein-complex assay; conditions: Compound concentration 1.0 uM
# [4] = molecular target: Calcium/calmodulin-dependent protein kinase type 1G (Homo sapiens) (UniProt Q96NX5); test: CaMKIgamma(h) Eurofins kinase panel; conditions: Compound concentration 1.0 uM
# [5] = molecular target: T2, Serine/threonine-protein kinase Nek11 (Homo sapiens) (UniProt Q8NG66); test: NEK11(h) Eurofins kinase panel; conditions: Compound concentration 1.0 uM
# T2 sequence (whole entry): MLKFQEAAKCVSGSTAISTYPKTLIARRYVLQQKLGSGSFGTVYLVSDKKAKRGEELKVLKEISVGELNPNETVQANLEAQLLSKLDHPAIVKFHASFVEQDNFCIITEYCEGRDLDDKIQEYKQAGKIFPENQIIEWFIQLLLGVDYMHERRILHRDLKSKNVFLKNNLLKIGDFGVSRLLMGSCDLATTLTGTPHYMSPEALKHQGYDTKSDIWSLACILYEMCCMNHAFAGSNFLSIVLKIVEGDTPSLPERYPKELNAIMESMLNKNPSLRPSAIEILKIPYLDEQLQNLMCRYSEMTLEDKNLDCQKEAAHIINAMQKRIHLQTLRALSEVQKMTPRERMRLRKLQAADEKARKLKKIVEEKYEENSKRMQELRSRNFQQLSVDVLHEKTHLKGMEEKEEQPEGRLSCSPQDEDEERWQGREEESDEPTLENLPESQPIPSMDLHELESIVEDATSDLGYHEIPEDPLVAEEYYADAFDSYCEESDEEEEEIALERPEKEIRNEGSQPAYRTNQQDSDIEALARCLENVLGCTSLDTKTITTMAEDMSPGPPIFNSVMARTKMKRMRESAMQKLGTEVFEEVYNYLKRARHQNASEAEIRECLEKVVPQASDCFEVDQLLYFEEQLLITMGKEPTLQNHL
# [6] = molecular target: Aurora kinase B (Homo sapiens) (UniProt Q96GD4); test: Aurora-B(h) Eurofins kinase panel; conditions: Compound concentration 1.0 uM
# [7] = molecular target: T3, Ephrin type-A receptor 3 (Homo sapiens) (UniProt P29320); test: EphA3(h) Eurofins kinase panel; conditions: Compound concentration 1.0 uM
# T3 sequence (whole entry): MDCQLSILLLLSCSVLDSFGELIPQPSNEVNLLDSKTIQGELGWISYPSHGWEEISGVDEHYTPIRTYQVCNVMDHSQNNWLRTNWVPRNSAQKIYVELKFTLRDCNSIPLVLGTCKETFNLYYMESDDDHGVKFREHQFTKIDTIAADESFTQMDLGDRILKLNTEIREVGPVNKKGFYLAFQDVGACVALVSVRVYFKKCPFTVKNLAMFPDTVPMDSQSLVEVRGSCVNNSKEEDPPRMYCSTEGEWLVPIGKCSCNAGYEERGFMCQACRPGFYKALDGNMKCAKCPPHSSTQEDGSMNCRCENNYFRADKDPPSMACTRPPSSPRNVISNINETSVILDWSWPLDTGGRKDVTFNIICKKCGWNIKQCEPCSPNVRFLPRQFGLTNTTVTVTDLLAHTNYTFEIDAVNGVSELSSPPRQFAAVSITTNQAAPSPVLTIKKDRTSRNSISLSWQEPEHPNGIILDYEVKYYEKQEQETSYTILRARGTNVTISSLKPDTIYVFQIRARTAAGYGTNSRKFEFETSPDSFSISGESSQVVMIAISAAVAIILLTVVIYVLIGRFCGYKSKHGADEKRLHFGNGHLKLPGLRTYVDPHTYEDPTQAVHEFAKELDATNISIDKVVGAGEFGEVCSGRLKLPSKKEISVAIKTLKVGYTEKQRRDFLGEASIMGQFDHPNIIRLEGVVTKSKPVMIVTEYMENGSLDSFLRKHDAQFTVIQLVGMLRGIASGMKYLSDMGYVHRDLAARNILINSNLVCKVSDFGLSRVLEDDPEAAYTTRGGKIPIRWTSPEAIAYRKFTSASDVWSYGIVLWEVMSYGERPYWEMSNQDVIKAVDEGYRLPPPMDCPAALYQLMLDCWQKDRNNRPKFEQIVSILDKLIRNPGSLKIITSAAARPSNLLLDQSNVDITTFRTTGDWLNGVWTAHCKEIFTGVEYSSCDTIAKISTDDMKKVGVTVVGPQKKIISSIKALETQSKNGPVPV
# [8] = molecular target: Macrophage colony-stimulating factor 1 receptor (Homo sapiens) (UniProt P07333); test: Fms(h) Eurofins kinase panel; conditions: Compound concentration 1.0 uM
# [9] = molecular target: RAC-beta serine/threonine-protein kinase (Homo sapiens) (UniProt P31751); test: PKBbeta (h) Eurofins kinase panel; conditions: Compound concentration 1.0 uM
# [10] = molecular target: Tyrosine-protein kinase Fer (Homo sapiens) (UniProt P16591); test: Fer(h) Eurofins kinase panel; conditions: Compound concentration 1.0 uM
# [11] = molecular target: Vascular endothelial growth factor receptor 1 (Homo sapiens) (UniProt P17948); test: Flt1(h) Eurofins kinase panel; conditions: Compound concentration 1.0 uM
# SNU-16 = test: Snu16 cell line Proliferation assay; type: functional, Homo sapiens; conditions: time 3 day
# [12] = molecular target: Macrophage-stimulating protein receptor (Homo sapiens) (UniProt Q04912); test: Ron(h) Eurofins kinase panel; conditions: Compound concentration 1.0 uM
# [13] = molecular target: Vascular endothelial growth factor receptor 3 (Homo sapiens) (UniProt P35916); test: Flt4(h) Eurofins kinase panel; conditions: Compound concentration 1.0 uM
# [14] = molecular target: Tyrosine-protein kinase JAK1 (Homo sapiens) (UniProt P23458); test: JAK1(h) Eurofins kinase panel; conditions: Compound concentration 1.0 uM
# [15] = molecular target: Dual specificity mitogen-activated protein kinase kinase 2 (Homo sapiens) (UniProt P36507); test: MEK2(h) Eurofins kinase panel; conditions: Compound concentration 1.0 uM
# [16] = molecular target: Beta-3 adrenergic receptor (Homo sapiens) (UniProt P13945); conditions: Compound concentration 10.0 uM
# Chain of Beta-3 adrenergic receptor (Homo sapiens) (P13945 whole entry, looked up): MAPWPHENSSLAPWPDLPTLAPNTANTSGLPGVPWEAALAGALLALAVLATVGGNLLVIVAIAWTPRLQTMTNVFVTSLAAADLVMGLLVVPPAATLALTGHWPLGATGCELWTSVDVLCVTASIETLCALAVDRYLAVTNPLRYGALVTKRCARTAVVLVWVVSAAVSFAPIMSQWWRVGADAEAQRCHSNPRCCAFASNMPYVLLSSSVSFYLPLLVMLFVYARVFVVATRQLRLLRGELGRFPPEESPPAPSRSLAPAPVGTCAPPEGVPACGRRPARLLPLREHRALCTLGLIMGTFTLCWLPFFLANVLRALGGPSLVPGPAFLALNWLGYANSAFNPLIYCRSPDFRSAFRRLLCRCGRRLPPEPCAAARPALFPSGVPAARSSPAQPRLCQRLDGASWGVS
# Chain of Vascular endothelial growth factor receptor 3 (Homo sapiens) (P35916 whole entry): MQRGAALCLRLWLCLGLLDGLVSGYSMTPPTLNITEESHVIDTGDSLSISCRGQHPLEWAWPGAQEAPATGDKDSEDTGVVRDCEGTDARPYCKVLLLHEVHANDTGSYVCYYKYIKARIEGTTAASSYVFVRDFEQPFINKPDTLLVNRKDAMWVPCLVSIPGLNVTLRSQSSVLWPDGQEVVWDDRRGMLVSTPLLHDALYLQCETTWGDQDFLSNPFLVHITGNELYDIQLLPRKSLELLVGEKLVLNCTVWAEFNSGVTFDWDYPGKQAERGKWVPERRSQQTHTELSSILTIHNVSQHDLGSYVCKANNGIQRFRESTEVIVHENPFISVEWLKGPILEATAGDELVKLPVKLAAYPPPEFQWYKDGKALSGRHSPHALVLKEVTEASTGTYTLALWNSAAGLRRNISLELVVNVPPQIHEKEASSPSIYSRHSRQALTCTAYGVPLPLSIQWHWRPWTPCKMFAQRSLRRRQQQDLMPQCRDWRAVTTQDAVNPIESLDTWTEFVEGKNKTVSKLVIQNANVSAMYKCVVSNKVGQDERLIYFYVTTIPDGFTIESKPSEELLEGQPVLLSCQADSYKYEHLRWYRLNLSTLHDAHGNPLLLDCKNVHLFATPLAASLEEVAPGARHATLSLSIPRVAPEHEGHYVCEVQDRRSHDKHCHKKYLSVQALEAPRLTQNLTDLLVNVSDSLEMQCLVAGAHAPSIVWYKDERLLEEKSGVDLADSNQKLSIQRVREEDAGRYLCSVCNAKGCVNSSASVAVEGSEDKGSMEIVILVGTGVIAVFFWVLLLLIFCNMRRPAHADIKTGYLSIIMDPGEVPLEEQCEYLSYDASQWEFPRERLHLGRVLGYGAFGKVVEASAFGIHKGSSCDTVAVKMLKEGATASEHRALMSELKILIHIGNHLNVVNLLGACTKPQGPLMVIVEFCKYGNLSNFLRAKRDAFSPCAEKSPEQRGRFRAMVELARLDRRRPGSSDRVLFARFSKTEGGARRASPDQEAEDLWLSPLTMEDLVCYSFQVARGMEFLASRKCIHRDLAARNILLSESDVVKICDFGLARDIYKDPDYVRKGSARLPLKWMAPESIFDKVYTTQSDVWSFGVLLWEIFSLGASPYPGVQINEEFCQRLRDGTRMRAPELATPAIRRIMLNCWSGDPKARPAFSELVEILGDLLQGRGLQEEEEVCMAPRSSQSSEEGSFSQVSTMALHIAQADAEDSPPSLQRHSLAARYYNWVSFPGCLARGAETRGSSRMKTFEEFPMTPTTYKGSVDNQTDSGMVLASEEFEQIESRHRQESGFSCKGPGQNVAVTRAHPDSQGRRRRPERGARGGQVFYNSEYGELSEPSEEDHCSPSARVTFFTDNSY
# Chain of Tyrosine-protein kinase Fer (Homo sapiens) (P16591 whole entry, looked up): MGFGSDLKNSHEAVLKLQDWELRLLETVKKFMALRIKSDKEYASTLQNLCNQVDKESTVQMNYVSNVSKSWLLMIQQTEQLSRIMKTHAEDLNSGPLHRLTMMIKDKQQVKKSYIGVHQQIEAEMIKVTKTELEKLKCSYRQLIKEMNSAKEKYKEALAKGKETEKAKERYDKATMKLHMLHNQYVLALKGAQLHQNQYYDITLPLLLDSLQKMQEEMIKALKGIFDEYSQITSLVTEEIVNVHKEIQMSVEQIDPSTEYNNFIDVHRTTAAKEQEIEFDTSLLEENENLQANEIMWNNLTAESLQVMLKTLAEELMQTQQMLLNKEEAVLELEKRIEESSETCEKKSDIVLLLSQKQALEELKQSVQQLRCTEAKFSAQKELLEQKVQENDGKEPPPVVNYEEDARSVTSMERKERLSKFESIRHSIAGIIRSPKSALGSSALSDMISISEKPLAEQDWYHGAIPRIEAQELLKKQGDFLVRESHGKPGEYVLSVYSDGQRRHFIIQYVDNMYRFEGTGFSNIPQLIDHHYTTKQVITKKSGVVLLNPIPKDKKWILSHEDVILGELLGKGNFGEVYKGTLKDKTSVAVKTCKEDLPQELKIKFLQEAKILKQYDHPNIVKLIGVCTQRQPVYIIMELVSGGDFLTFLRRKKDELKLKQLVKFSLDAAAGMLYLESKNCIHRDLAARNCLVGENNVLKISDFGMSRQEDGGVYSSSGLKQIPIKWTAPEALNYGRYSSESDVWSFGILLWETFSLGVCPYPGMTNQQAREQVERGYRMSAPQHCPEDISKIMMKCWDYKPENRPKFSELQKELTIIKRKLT
# Chain of Calcium/calmodulin-dependent protein kinase type 1G (Homo sapiens) (Q96NX5 whole entry): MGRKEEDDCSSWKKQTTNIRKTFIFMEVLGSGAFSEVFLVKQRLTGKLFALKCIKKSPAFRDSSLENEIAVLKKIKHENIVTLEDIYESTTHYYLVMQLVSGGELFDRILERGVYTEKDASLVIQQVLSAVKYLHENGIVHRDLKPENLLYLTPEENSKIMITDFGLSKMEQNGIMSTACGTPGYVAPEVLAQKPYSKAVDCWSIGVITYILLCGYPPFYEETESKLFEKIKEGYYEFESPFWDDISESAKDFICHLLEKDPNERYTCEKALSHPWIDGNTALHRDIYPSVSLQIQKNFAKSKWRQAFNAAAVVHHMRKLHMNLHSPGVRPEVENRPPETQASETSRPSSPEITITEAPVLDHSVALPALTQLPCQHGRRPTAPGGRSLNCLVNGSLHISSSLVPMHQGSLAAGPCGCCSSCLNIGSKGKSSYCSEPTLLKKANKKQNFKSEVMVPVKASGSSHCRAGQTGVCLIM
# Chain of Macrophage colony-stimulating factor 1 receptor (Homo sapiens) (P07333 whole entry): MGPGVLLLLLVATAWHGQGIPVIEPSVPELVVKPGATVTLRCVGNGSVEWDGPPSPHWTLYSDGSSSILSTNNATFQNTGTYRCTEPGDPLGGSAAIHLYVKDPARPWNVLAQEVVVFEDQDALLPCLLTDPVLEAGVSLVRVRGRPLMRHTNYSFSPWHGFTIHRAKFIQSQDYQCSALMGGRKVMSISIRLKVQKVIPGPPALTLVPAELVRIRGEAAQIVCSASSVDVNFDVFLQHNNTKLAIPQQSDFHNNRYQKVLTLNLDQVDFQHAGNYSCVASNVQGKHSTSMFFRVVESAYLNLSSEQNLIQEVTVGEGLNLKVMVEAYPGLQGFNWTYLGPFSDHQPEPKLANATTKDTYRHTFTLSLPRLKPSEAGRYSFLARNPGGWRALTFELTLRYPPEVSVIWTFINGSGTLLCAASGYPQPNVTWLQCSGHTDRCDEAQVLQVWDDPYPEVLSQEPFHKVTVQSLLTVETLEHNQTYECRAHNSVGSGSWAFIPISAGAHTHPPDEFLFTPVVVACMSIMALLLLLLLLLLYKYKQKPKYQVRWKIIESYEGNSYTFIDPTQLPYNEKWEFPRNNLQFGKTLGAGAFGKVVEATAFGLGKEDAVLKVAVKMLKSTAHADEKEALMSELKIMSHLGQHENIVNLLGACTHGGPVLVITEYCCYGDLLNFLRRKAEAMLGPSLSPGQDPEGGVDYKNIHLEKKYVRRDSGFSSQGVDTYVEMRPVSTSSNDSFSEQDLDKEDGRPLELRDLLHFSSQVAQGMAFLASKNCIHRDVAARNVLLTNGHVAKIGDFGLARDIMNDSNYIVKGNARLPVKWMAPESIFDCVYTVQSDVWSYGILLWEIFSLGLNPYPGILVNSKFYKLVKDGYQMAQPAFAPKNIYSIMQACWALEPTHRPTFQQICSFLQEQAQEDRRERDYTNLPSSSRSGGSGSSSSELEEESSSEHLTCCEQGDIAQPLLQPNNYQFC
# Chain of Aurora kinase B (Homo sapiens) (Q96GD4 whole entry): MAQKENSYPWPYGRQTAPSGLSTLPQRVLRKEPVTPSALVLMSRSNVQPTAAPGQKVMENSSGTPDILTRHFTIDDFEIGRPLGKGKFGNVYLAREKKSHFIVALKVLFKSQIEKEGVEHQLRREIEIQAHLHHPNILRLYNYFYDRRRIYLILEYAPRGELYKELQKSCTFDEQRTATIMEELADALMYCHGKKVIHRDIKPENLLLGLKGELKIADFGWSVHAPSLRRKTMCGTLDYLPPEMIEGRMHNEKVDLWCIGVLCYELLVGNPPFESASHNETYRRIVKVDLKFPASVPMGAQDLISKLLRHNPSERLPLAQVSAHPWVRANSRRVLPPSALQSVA
# Chain of Dual specificity mitogen-activated protein kinase kinase 2 (Homo sapiens) (P36507 whole entry): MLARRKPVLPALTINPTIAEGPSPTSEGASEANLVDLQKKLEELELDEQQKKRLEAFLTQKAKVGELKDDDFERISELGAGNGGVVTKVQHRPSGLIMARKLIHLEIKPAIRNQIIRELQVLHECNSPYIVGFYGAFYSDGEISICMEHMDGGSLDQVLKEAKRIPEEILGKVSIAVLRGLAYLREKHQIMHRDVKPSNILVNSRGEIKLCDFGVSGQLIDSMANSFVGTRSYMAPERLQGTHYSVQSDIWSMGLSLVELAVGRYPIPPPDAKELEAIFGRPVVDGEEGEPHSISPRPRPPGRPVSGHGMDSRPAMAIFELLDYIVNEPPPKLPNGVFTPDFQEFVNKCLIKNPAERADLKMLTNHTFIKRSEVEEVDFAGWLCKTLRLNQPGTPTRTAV
SMILES,% residual kinase activity [1],pIC50 [2],% residual kinase activity [3],% residual kinase activity [4],% residual kinase activity [5],% residual kinase activity [6],% residual kinase activity [7],% residual kinase activity [8],% residual kinase activity [9],% residual kinase activity [10],% residual kinase activity [11],Cell Proliferation IC50 (SNU-16),% residual kinase activity [12],% residual kinase activity [13],% residual kinase activity [14],% residual kinase activity [15],inhibition [16]
CCc1ccccc1C(=O)Nc1n[nH]c2c(C)c(F)c(C3C(C#N)=C(C)N(C)C(C)=C3C#N)cc12 [BAY-3827],90%,7.28,98%,92%,103%,76%,112%,99%,105%,100%,96%,11.6 µM,102%,73%,98%,112%,
CC1=C(C#N)C(c2ccc3c(c2)c(NC(=O)c2ccccc2C)nn3C)C(C#N)=C(C)N1 [BAY-974],,,,,,,,,,,,,,,,,-3.33%
